Experimental findings from patent US8772199B2, “Herbicidal compositions for tolerant or resistant maize crops” (Bayer Intellectual Property GmbH, priority 1998, dated 2014) are described below.

Common to all, as to assay type: in vivo
One series relates to Convolvulus arvensis. Put plainly: Field trial with maize, herbicidal action. The settings on record: application 3- to 4-leaf stage, scoring 28 days after application. On the procedure:
(§1) Transgenic maize plants with a resistance to one or more herbicides (A) together with typical weed plants were grown in the open on 2×5 m plots under natural field conditions; alternatively, weed infestation occurred naturally when the maize plants were grown.
(§2) 2, 4, 6 and 8 weeks after the application, the herbicidal activity of the active substances or active substance mixtures was scored visually with reference to the treated plots in comparison to untreated control plots. The damage to, and the development of, all aerial parts of the plants was recorded. Scoring was done on the basis of a percentage sale (100% action=all plants destroyed; 50% action=50% of the plants and green parts of the plants destroyed; 0% action=no recognizable effect=like control plot. The mean of the score values of in each case 4 plots was calculated.

The test system of series [1] is Mais LL (Liberty-Link-Mais, maize tolerant or resistant to glufosinate-ammonium). Put plainly: Field trial, damage to transgenic maize (tolerance by crop plants). On the procedure: as §1
The damage to, and the development of, all aerial parts of the plants was recorded.
Abbreviations generally used in the tables: • g of a.s./ha=gram of active substance (100% active substance) per hectare • E^A=Total of the herbicidal effects of the individual applications • E^C Colby's expected value (cf. scoring in Table 1) • “Mais LL”=®Liberty-Link-Mais, maize which is tolerant or resistant to glufosinate-ammonium, […]

The subject of the next series is Echinochloa crus-galli. Put plainly: Field trial with maize, herbicidal action. As for the experimental part: as §1
(§3) […] The damage to, and the development of, all aerial parts of the plants was recorded. Scoring was done on the basis of a percentage sale (100% action=all plants destroyed; 50% action=50% of the plants and green parts of the plants destroyed; 0% action=no recognizable effect=like control plot. The mean of the score values of in each case 4 plots was calculated.

In a further series the test system is Avena fatua. Put plainly: Field trial with maize, herbicidal action. The settings on record: application 2- to 4-leaf stage, scoring 28 days after application. As for the experimental part: as §1, §2
A further series deals with Portulaca oleracea. Put plainly: Field trial with maize, herbicidal action. On the procedure: as §1, §3
In the next series the test system is Sorghum halepense. Put plainly: Field trial with maize, herbicidal action. The settings on record: application 4-leaf stage, scoring 28 days after application. On the procedure:
as §1, §2

The next series has as its system Fagopyrum esculentum. Put plainly: Field trial with maize, herbicidal action. The settings on record: application 3- to 4-leaf stage, scoring 24 days after application. On the procedure: as §1, §3
For another series, the system named is Galium aparine. Put plainly: Field trial with maize, herbicidal action. The following applies: application 3- to 4-leaf stage, scoring 24 days after application. As for the experimental part: as §1, §3
The next series has as its system Commelina benghalensis. Put plainly: Field trial with maize, herbicidal action. The following applies: application 3-leaf stage, scoring 42 days after application. As for the experimental part: as §1, §2
In a further series the test system is Euphorbia heterophylla. Put plainly: Field trial with maize, herbicidal action. The settings on record: for Herbicidal action (%) against EPHHL: application 4-leaf stage, scoring 6 weeks after application; for Herbicidal action (%) against Euphorbia heterophylla: application 6-leaf stage, scoring 44 days after application. As for the experimental part: as §1, §3

The next series deals with Brachiaria plantaginea. Put plainly: Field trial with maize, herbicidal action. The following applies: 1500 g of a.s./ha; application 2-leaf stage; scoring 28 days after application. On the procedure:
as §1, §2

A further series concerns Sinapis arvensis. Put plainly: Field trial with maize, herbicidal action. The settings on record: 15 g of a.s./ha; application 4- to 5-leaf stage; scoring 28 days after application. As for the experimental part:
as §1, §2

In a further series the test system is Sorghum bicolor. Put plainly: Field trial with maize, herbicidal action. The settings on record: pre-emergence application, scoring 46 days after pre-emergence application. As for the experimental part: as §1, §2
The subject of the next series is Digitaria sanguinalis. Put plainly: Field trial with maize, herbicidal action. The settings on record: 300 g of a.s./ha; application 5-6-leaf stage; scoring 11 days after application. As for the experimental part:
as §1, §3

The subject of a further series is Panicum dichotomiflorum. Put plainly: Field trial with maize, herbicidal action. The following applies: 300 g of a.s./ha; application 5-6-leaf stage; scoring 11 days after application. On the procedure:
as §1, §3

Regarding `Cc1cc(Cl)ccc1OCC(=O)O` [(B3.9), (4-chloro-2-methylphenoxy)acetic acid], in the series with Convolvulus arvensis (500 g of a.s./ha), the “Herbicidal action (%) against Convolvulus arvensis” value was 60%.
Regarding `O=C(O)c1nc(Cl)ccc1Cl` [(B3.4), 3,6-dichloro-2-pyridinecarboxylic acid], the “Mais LL” value in [1] (100 g of a.s./ha, application 3-leaf stage, Table 14, head names no quantity) is reported as 0. The “Herbicidal action (%) against Echinochloa crus-galli” value in the series on Echinochloa crus-galli (100 g of a.s./ha, application 3-leaf stage, scoring 21 days after application) is 15%.
Turning to `CCOCN(C(=O)CCl)c1c(C)cccc1CC` [(B1.4), 2-chloro-N-(ethoxymethyl)-N-(2-ethyl-6-methylphenyl)acetamide], the “Herbicidal action (%) against Echinochloa crus-galli” value is 10% in the series on Echinochloa crus-galli (375 g of a.s./ha, application 3- to 4-leaf stage, scoring 42 days after application); 40% with Echinochloa crus-galli (750 g of a.s./ha, application 3- to 4-leaf stage, scoring 42 days after application); 45% in the series on Echinochloa crus-galli (1500 g of a.s./ha, application 3- to 4-leaf stage, scoring 42 days after application).
As for `N#Cc1cc(Br)c(O)c(Br)c1` [(B3.1), 3,5-dibromo-4-hydroxybenzonitrile], the “Herbicidal action (%) against Avena fatua” value with Avena fatua (360 g of a.s./ha) stood at 10%. Besides, the “Herbicidal action (%) against Portulaca oleracea” value is 25% in the series on Portulaca oleracea (360 g of a.s./ha, application 2- to 4-leaf stage, scoring 28 days after application) and 25% in the series on Portulaca oleracea (360 g of a.s./ha, application 6-leaf stage, scoring 26 days after application).
Regarding `O=C(Nc1nc(OC(F)F)cc(OC(F)F)n1)NS(=O)(=O)c1ccccc1C(=O)O` [(B1.11), 2-[4,6-bis(difluoromethoxy)pyrimidin-2-ylcarbamoylsulfamoyl]benzoic acid], the entries for the “Herbicidal action (%) against Sorghum halepense” value with Sorghum halepense (10 g of a.s./ha) and with Sorghum halepense (20 g of a.s./ha) were 62% and 93%, respectively.
`COc1nc(NC(=O)NS(=O)(=O)c2ccccc2C(F)(F)F)nc(C(F)(F)F)n1` [(B3.8), N-[[[4-methoxy-6-(trifluoromethyl)-1,3,5-triazin-2-yl)amino]-carbonyl]-2-(trifluoromethyl)benzenesulfonamide]: the “Herbicidal action (%) against Fagopyrum esculentum” value in the series with Fagopyrum esculentum (15 g of a.s./ha) was 30%; in the series on Fagopyrum esculentum (30 g of a.s./ha) it was 60%; in the series with Fagopyrum esculentum (60 g of a.s./ha), 78%. Also, the “Herbicidal action (%) against Galium aparine” value with Galium aparine (15 g of a.s./ha) came out at 45%; in the series on Galium aparine (30 g of a.s./ha), 65%; with Galium aparine (60 g of a.s./ha), 85%.
Consider `COCC(C)N(C(=O)CCl)c1c(C)csc1C` (centres unmarked) [(B1.12), 2-chloro-N-(2,4-dimethyl-3-thienyl)-N-(2-methoxy-1-methylethyl)acetamide], for which, in the series with Convolvulus arvensis (900 g of a.s./ha), the “Herbicidal action (%) against Convolvulus arvensis” value amounted to 30%.
On to `O=C(O)COc1ccc(Cl)cc1Cl` [(B3.3), 2,4-dichlorophenoxyacetic acid], for which, in the series with Convolvulus arvensis (500 g of a.s./ha), the “Herbicidal action (%) against Convolvulus arvensis” value came to 20%.
As for `CC(C)N(C(=O)COc1nnc(C(F)(F)F)s1)c1ccc(F)cc1` [(B1.13), 4′-fluoro-N-isopropyl-2-(5-trifluoromethyl-1,3,4-thiadiazol-2-yloxy)acetanilide], the “Herbicidal action (%) against Echinochloa crus-galli” value with Echinochloa crus-galli (125 g of a.s./ha, application 3-leaf stage, scoring 28 days after application) is 25%; in the series with Echinochloa crus-galli (250 g of a.s./ha, application 3-leaf stage, scoring 28 days after application) it was 30%; with Echinochloa crus-galli (500 g of a.s./ha, application 3-leaf stage, scoring 28 days after application), 55%.
Regarding `CCc1cccc(CC)c1N(COC)C(=O)CCl` [(B1.6), 2-chloro-N-(2,6-diethylphenyl)-N-(methoxymethyl)acetamide], in the series on Commelina benghalensis (1920 g of a.s./ha), the “Herbicidal action (%) against Commelina benghalensis” value is listed as 37%. Further, the “Mais LL” value in series [1] (1920 g of a.s./ha, application 3-leaf stage, Table 11, head names no quantity) turned out to be 0.
Consider `CS(=O)(=O)c1ccc(C(=O)C2C(=O)CCCC2=O)c([N+](=O)[O-])c1` [(B1.16), 2-(4-mesyl-2-nitrobenzoyl)cyclohexane-1,3-dione], for which the “Damage to Mais LL in %” value is recorded as 0% in series [1] (50 g of a.s./ha, application 4-leaf stage); 0% in [1] (100 g of a.s./ha, application 4-leaf stage); 0% in series [1] (150 g of a.s./ha, application 4-leaf stage). For the same compound, the entries for the “Herbicidal action (%) against EPHHL” value in the series on Euphorbia heterophylla (50 g of a.s./ha), in the series on Euphorbia heterophylla (100 g of a.s./ha) and in the series with Euphorbia heterophylla (150 g of a.s./ha) were 60%, 58% and 70%, respectively.
Consider `CCc1cnc(C2=NC(C)(C(C)C)C(=O)N2)c(C(=O)O)c1` (centres unmarked) [(A3.2), imazethapyr], for which the “Herbicidal action (%) against Commelina benghalensis” value with Commelina benghalensis (100 g of a.s./ha) is on record as 73%. Further, the “Mais LL” value in series [1] (in vivo) was 0.
Consider `CCc1cccc(C)c1N(C(=O)CCl)C(C)COC` (centres unmarked) [(B1.5), 2-chloro-N-(2-ethyl-6-methylphenyl)-N-(2-methoxy-1-methylethyl)-acetamide], for which the “Herbicidal action (%) against Avena fatua” value with Avena fatua (1680 g of a.s./ha) is 40%. In the series with Brachiaria plantaginea, the “Herbicidal action (%) against Brachiaria plantaginea” value was 70%. Moreover, the “Herbicidal action (%) against Portulaca oleracea” value in the series on Portulaca oleracea (1680 g of a.s./ha, application 2- to 4-leaf stage, scoring 28 days after application) is on record as 35%.
For `COc1nc(C)nc(NC(=O)NS(=O)(=O)c2ccsc2C(=O)O)n1` [(B3.6), 3-[[[[(4-methoxy-6-methyl-1,3,5-triazin-2-yl)amino]carbonyl]amino]sulfonyl]-2-thiophenecarboxylic acid], the “Herbicidal action (%) against Sinapis arvensis” value in the series on Sinapis arvensis was determined as 73%.
For `CCNc1nc(Cl)nc(NC(C)(C)C#N)n1` [(B1.1), 2-(4-chloro-6-ethylamino-1,3,5-triazin-2-ylamino)-2-methylpropionitrile], the “Herbicidal action (%) against Avena fatua” value in the series with Avena fatua (2242 g of a.s./ha) is listed as 35%. In addition, in the series with Portulaca oleracea (2242 g of a.s./ha, application 2- to 4-leaf stage, scoring 28 days after application), the “Herbicidal action (%) against Portulaca oleracea” value is 45%.
Turning to `CCCCCCCCSC(=O)Oc1cc(Cl)nnc1-c1ccccc1` [(B2.2), 6-chloro-3-phenylpyridazin-4-yl S-octyl thiocarbonate], in the series on Convolvulus arvensis (900 g of a.s./ha), the “Herbicidal action (%) against Convolvulus arvensis” value came out at 40%.
For `CS(=O)(=O)c1cc(C(F)(F)F)ccc1C(=O)c1cnoc1C1CC1` [(B2.5), (5-cyclopropyl-4-isoxazolyl)[2-(methylsulfonyl)-4-(trifluoromethyl)phenyl]-methasone], the “Herbicidal action (%) against Sorghum bicolor” value is 20% in the series with Sorghum bicolor (25 g of a.s./ha), 40% with Sorghum bicolor (50 g of a.s./ha) and 75% in the series with Sorghum bicolor (100 g of a.s./ha).
`Cc1ccn2nc(S(=O)(=O)Nc3c(F)cccc3F)nc2n1` [(B2.8)]: the “Herbicidal action (%) against Echinochloa crus-galli” value is 40% with Echinochloa crus-galli (50 g of a.s./ha, application 3-leaf stage, scoring 21 days after application) and 65% in the series with Echinochloa crus-galli (70 g of a.s./ha, application 3-leaf stage, scoring 21 days after application).
Consider `CS(=O)(=O)c1ccc(C(=O)C2C(=O)CCCC2=O)c(Cl)c1` [(B1.14), 2-(2-chloro-4-mesylbenzoyl)cyclohexane-1,3-dione], for which the “Damage to Mais LL in %” value in series [1] (200 g of a.s./ha, application 6-leaf stage) is 0%; in series [1] (300 g of a.s./ha, application 6-leaf stage), 0%; in series [1] (400 g of a.s./ha, application 6-leaf stage), 0%. The figures for the “Herbicidal action (%) against Euphorbia heterophylla” value in the series with Euphorbia heterophylla (200 g of a.s./ha), in the series with Euphorbia heterophylla (300 g of a.s./ha) and with Euphorbia heterophylla (400 g of a.s./ha) were 60%, 68% and 75%, respectively.
As for `COc1c(Cl)ccc(Cl)c1C(=O)O` [(B3.2), 3,6-dichloro-o-anisic acid], the “Damage to Mais LL in %” value in series [1] (in vivo) turned out to be 0%. For the same compound, the “Herbicidal action (%) against Digitaria sanguinalis” value in the series on Digitaria sanguinalis is on record as 88%. For the same compound, in the series on Panicum dichotomiflorum, the “Herbicidal action (%) against Panicum dichotomiflorum” value is reported as 0%.
